Where two headings read alike, the source gives them in different places.
Key:
[1] = target: T1, recombinant human 5-LO enzyme (Homo sapiens, UniProt P09917); assay: Direct 5-LO inhibitory activity in a cell-free assay (H2DCF-DA fluorescence); format: biochemical
T1 sequence (P09917 1-674): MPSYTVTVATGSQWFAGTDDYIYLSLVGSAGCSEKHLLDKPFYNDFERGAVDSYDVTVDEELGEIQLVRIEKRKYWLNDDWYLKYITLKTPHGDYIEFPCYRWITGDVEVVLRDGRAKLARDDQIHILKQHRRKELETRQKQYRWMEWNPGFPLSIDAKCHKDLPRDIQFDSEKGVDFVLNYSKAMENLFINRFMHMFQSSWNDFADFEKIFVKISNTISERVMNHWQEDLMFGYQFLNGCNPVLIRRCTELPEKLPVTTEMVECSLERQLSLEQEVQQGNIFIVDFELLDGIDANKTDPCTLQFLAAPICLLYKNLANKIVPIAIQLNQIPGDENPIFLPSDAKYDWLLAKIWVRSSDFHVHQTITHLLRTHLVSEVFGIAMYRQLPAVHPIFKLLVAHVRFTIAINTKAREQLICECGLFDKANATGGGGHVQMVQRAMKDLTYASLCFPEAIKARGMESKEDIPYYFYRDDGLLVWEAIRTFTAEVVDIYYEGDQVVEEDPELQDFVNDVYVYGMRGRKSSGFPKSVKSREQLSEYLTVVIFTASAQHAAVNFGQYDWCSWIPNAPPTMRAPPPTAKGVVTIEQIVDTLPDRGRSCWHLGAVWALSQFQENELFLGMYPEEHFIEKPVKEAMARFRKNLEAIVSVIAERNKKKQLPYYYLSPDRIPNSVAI
Experimental: H2DCF-DA (60 μM) was first pre-cleaved by incubating with 450 mU/ml recombinant human 5-LO enzyme in Tris buffer (containing 50 mM Tris, pH=7.5, 2 mM EDTA, 2 mM CaCl2), 1 mM dithiothreitol (DTT) and 0.6 U/ml glutathione peroxidase) for 10 min at room temperature. […] After 10 min incubation at room temperature, the reaction was started with the addition of 50 μl of the substrate solution (Tris buffer containing 20 μM ATP and 20 μM arachidonic acid). After a further 20 min, the reaction was terminated with 100 μl acetonitrile. Fluorescence was read at 500 nm excitation and 520 emission, with Novostar® microplate reader (BMG Labtech, Offenburg, Germany). Appropriate controls, including 100 μM nordihydroguaiaretic acid (NDGA), were included to isolate only the 5-LO-attributable, NDGA-inhibitable RFU values.

[2] = test system: 5-LO-dependent generation of leukotriene B4 (LTB4) from activated human whole blood; assay: Inhibition of LTB4 generation from LPS/FMLP-activated human whole blood; format: cell-based; settings: LPS-primed, FMLP-stimulated human whole blood; read-out: Inhibitory Activity IC50, Human whole blood LTB4
Experimental: Inhibition of LTB4 generation from human whole blood: All compounds were evaluated for inhibitory activity against 5-LO-dependent generation of leukotriene B4 (LTB4) from activated human whole blood. With ethical approval from the Health Sciences Center Ethical Committee of Kuwait University, heparinized fresh human blood samples from apparently healthy individuals were obtained from the Kuwait Central Blood Bank. Aliquots of 185 μl of whole blood were dispensed into each well of 96-well culture plate containing 5 μl of the priming agent, lipopolysaccharide (LPS) at a final concentration of 1 μg/ml. […] After further incubation for 15 min at 37° C., 5 μl of N-formylmethionyl-leucyl-phenylalanine (FMLP), at […] final concentration, was added to stimulate LT production. The reaction was stopped after 15 min, and the supernatants recovered by centrifugation and stored at −40° C. pending analysis of the LTB4 content.
(§1) Assay of released leukotrienes/β-hexoseaminidase enzyme: Appropriately diluted supernatants were assayed for the released LTs (LTB4 and LTC4), by the enzyme immunoassay (EIA) method using assay kits supplied by R&D Systems (Minneapolis, Minn., USA) and following the manufacturer's instructions.

[3] = test system: LTC4 release from isolated human monocytes; assay: Inhibition of LTC4 release from isolated human monocytes (A23187-stimulated); format: cell-based; settings: read-out: Inhibitory Activity IC50, Human monocyte LTC4
Experimental: Inhibition of LTC4 release from isolated human monocytes: Mononuclear cells were first isolated from heparinized fresh blood using the Ficoll-Hypaque gradient centrifugation method. Monocytes were subsequently purified by adherence to plastic according to standard protocols. The purity of the adherent monocytes (CD14+) was routinely confirmed by flow cytometry to be >95% and viability (by trypan blue exclusion method) was routinely >97%. Adherent monocytes were then washed and incubated in 190 μl culture medium RPMI-1640 supplemented with 100 U/ml penicillin, 100 μg/ml streptomycin and 10% heat-inactivated fetal bovine serum (Sigma-Aldrich, St Louis, Mo., USA). […] After a further incubation for 15 min, the culture supernatants were recovered by centrifugation and stored at −40° C. pending LTC4 determination.
as §1

[4] = test system: LTC4 release from IgE/antigen-activated mouse mast cells (BMMC); assay: Inhibition of LTC4 release in allergen/IgE-activated bone marrow-derived mouse mast cells; format: cell-based; settings: for IC50: IgE/antigen (DNP-BSA)-activated BMMC, read-out: Inhibitory Activity IC50, Mouse mast cell LTC4
Source text: (§2) Inhibition of LTC4 release and degranulation in allergen/IgE-activated bone marrow-derived mouse mast cells (BMMC): Bone marrow-derived mast cells (BMMC) were generated from pathogen-free 5-7 week old male Balb/c mice according to the method of Davis et al., [2004] (Davis, B. J., et al., (2004), Journal of Immunology, 173: 6914-6920). Essentially, bone marrow cells were obtained by flushing of the femoral bone marrow and cultured in RPMI 1640 medium supplemented with 10% FBS, 100 U/ml penicillin, and 100 μg/ml streptomycin, 25 mM HEPES, 1.0 mM sodium pyruvate, 0.1 mM nonessential amino acids, 0.0035% 2-mercaptoethanol, and 30 ng/ml mouse recombinant IL-3, with culture medium replaced every two days. Cells were used after 4-8 weeks of culture, by which time at least 97% of the cells would have differentiated into mast cells.
(§3) The generated BMMCs were seeded at 5×10^4 cells/well in a 96-well flat-bottom culture plate and passively sensitized overnight with 0.5 μg/ml anti-DNP monoclonal IgE antibody (clone SPE-7, Sigma-Aldrich, St. Louis, Mo., USA). The cells were then washed twice to remove any unbound antibody and subsequently re-suspended in reaction buffer (135 mM NaCl, 5 mM KCl, 1.8 mM CaCl2), 1 mM MgCl2, 5.6 mM glucose, 0.05% BSA and 20 mM HEPES, pH 7.4). They were then pre-incubated with the test compounds (0.01-30 μM) or the solvent (0.05% DMSO) for 15 min before being stimulated with the specific antigen, DNP-BSA (30 ng/ml). After 30 min incubation at 37° C., the amount of LTC4 released into the supernatant (as index of 5-LO activity) was determined by ELISA as described below.
as §1

[5] = test system: degranulation of bone marrow-derived mouse mast cells; assay: Inhibition of degranulation (β-hexoseaminidase release) in allergen/IgE-activated BMMC; format: cell-based; settings: anti-DNP IgE sensitized, DNP-BSA 30 ng/ml, 30 min
Source text: as §2
as §3, with “They were then pre-incubated with the test compounds (0.01-30 μM) or the solvent (0.05% DMSO) for 15 min before being stimulated with the specific antigen, DNP-BSA (30 ng/ml).” left out
The concurrently-released granular enzyme, β-hexoseaminidase (as index of degranulation) was determined as described below.
The beta-hexoseaminidase released into the supernatant by the degranulating BMMCs was determined colorimetrically using p-nitrophenyl-N-acetyl-β-D-glucosaminide as substrate. […] The absorbance of the colored product (p-nitrophenol) was then read at 405 nm in a microplate reader. Results were expressed as percentage of the total cell content (determined in cells lysed with 0.1% triton-x-100).

[6] = test system: zymosan-induced peritonitis; assay: Zymosan-induced peritoneal inflammation in mice; format: in vivo, mouse; settings: 30 min before zymosan i.p., peritoneal exudate at 2 h
Source text: Inhibition of zymosan-induced peritoneal inflammation in mice: Female Balb/c mice, 6-8 weeks old, obtained from the Animal Resources Center of the Health Sciences Center, Kuwait University, were used. They were maintained under temperature-controlled conditions with an artificial 12-h light/dark cycle and allowed standard chow and water ad libitum. The study protocol was approved by the “Health Sciences Center Animal Welfare Committee” and complied with the “Guidelines for the Care and Use of Laboratory Animals” of the Health Sciences Centre, Kuwait University. The zymosan-induced peritonitis model-a recognized LT-mediated inflammatory reaction, described particularly in Hanke et al., 2013 ([…]., et al. (2013). Journal of medicinal chemistry, 56(22), 9031-9044) was used. […] After 30 min, all groups were injected intraperitonally with 0.2 ml of activated zymosan (2 mg/ml) except the control group that received 0.2 ml PBS. After 2 h, all animals were killed and the peritoneal exudate was collected by washing the cavity with 3 ml of heparinized (10 IU/ml) PBS.

[7] = cell-free, recombinant human 5-LO, read-out: Inhibitory Activity IC50, Human recomb. 5-LO

Row | IC50 [1] [µM] | IC50 [2] [µM] | IC50 ([3]; Monocyte) [µM] | IC50 ([4]; Mus musculus) [µM] | melting point [°C] | IC50 [1, 7] [µM] | SMILES | further results
1 | 11.8 | 1.4 | 8.2 | 6.3 |  |  | CCC(=O)N(O)C[C@H]1CN(c2ccc(N3CCOCC3)c(F)c2)C(=O)O1 [PH-199] | 
2 |  |  |  |  | 132 to 133.5 |  | O=C(C1CCC1)N(O)C[C@H]1CN(c2ccc(N3CCOCC3)c(F)c2)C(=O)O1 [PH-245, (R)—N-((3-(3-fluoro-4-morpholinophenyl)-2-oxooxazolidin-5-yl)methyl)-N-hydroxycyclobutane-carboxamide] | 
3 | 3.5 | 1.3 | 7.5 | 8.7 |  |  | O=C(C1CC1)N(O)C[C@H]1CN(c2ccc(N3CCOCC3)c(F)c2)C(=O)O1 [PH-211] | 
4 |  | 1.5 |  |  |  | 21.6 | CCCCCC(=O)ON(C[C@H]1CN(c2ccc(N3CCOCC3)c(F)c2)C(=O)O1)C(=O)CCCCC [PH-246] | IC50 [3]: 7.1 µM; IC50 [4]: 3.3 µM
5 |  | 7.9 | > 50 | 37.3 |  | > 30 | O=C(ON(C[C@H]1CN(c2ccc(N3CCOCC3)c(F)c2)C(=O)O1)C(=O)C1CC1)C1CC1 [PH-206] | 
6 |  |  |  |  | 122 to 124.5 | 4.7 | CC(C)CC(=O)N(O)C[C@H]1CN(c2ccc(N3CCOCC3)c(F)c2)C(=O)O1 [PH-239, (R)—N-((3-(3-fluoro-4-morpholinophenyl)-2-oxooxazolidin-5-yl)methyl)-N-hydroxy-3-methylbutanamide] | 
7 |  |  |  |  | 164.5 to 166.5 |  | O=C(C1CCCC1)N(O)C[C@H]1CN(c2ccc(N3CCOCC3)c(F)c2)C(=O)O1 [PH-244, (R)—N-((3-(3-fluoro-4-morpholinophenyl)-2-oxooxazolidin-5-yl)methyl)-N-hydroxycyclopentane-carboxamide] | 
8 |  |  |  |  | 121 to 122.5 | 3.3 | CCCCC(=O)N(O)C[C@H]1CN(c2ccc(N3CCOCC3)c(F)c2)C(=O)O1 [PH-241, (R)—N-((3-(3-fluoro-4-morpholinophenyl)-2-oxooxazolidin-5-yl)methyl)-N-hydroxypentanamide] | 
9 |  | 7.9 | 30.7 | 23.8 | 125 to 128 | 14.7 | NC(=O)N(O)C[C@H]1CN(c2ccc(N3CCOCC3)c(F)c2)C(=O)O1 [PH-238, (R)-1-((3-(3-fluoro-4-morpholinophenyl)-2-oxooxazolidin-5-yl)methyl)-1-hydroxyurea] | 
10 | 3.9 | 2.3 | 14.1 | 13.8 |  |  | CC(C)C(=O)N(O)C[C@H]1CN(c2ccc(N3CCOCC3)c(F)c2)C(=O)O1 [PH-205] | 
11 |  |  |  |  |  |  | CC(c1cc2ccccc2s1)N(O)C(N)=O (racemic) [Zileuton, (±)1-(1-(benzo[b]thiophen-2-yl)ethyl)-1-hydroxyurea, reference compound] | Inhibition of generation of LTC4 from IgE/allergen-activated mast cells (FIG. 2A) ([4]; BMMC, anti-DNP IgE sensitized, DNP-BSA 30 ng/ml, 30 min): equally effective in inhibiting the generation of LTC4; Inhibition of degranulation (release of granular β-hexoseaminidase) (FIG. 2B) [5]: only the representative compounds were able to inhibit degranulation; Net Exudate Vol ([6]; 3 mg/kg s.c.): 0.14 ± 0.04 mL; Total Cell No ([6]; 3 mg/kg s.c.): 16.7 ± 2.8 ×10^6; Total LTC4 ([6]; 3 mg/kg s.c.): 71.0 ± 12.4 ng; Net Exudate Vol ([6]; 10 mg/kg s.c.): 0.20 ± 0.07 mL; Total Cell No ([6]; 10 mg/kg s.c.): 24.9 ± 2.1 ×10^6; Total LTC4 ([6]; 10 mg/kg s.c.): 97.2 ± 47.3 ng; Net Exudate Vol ([6]; 30 mg/kg s.c.): no significant effect on exudate volume; Total Cell No ([6]; 30 mg/kg s.c.): 19.1 ± 4.4 ×10^6; Total LTC4 ([6]; 30 mg/kg s.c.): 48.3 ± 9.8 ng; Net Exudate Vol ([6]; 30 mg/kg s.c., listed as Zil): 0.10 ± 0.05 mL
12 |  | 10.7 | > 50 | 21.8 |  | > 30 | CC(C)C(=O)ON(C[C@H]1CN(c2ccc(N3CCOCC3)c(F)c2)C(=O)O1)C(=O)C(C)C [PH-204] | 
13 | > 30 | 3.3 | 18.7 | 20.7 |  |  | CC(=O)N(O)C[C@H]1CN(c2ccc(N3CCOCC3)c(F)c2)C(=O)O1 [PH-23] | 
